According to patent publication US9604947B2, “Substituted 5-imino-1,2,4-thiadiazoles that can be used to treat neurodegenerative diseases” (CONSEJO SUPERIOR DE INVESTIGACIONES CIENTIFICAS (CSIC), priority 2009, dated 2017):

What was measured:
in vitro = conditions: PAMPA
Experimental: Ten commercial reference drugs, phosphate buffer saline solution at pH 7.4 (PBS), DMSO and dodecane were purchased from Sigma, Acros organics, Aldrich and Fluka. […] Filter PDVF membrane units (diameter 30 mm, pore size 0.45 μm) from Symta were used to filtered the samples. A 96-well plate UV reader (Thermoscientific, Multiskan spectrum) was used for the UV measurements. […] These solutions were filtered. The acceptor 96-well microplate was filled with 180 μL of PBS:DMSO (95:5). The donor 96-well plate was coated with 4 μL of porcine brain lipid in dodecane (20 mg mL^−1) and after 5 minutes, 180 μL of each compound solution was added. 1-2 mg of every compound to be determined their ability to pass the BBB were dissolved in 250 μL of DMSO and 4750 μL of PBS pH 7.4 buffer, filtered and then added to the donor 96-well plate. Then the donor plate was carefully put on the acceptor plate to form a “sandwich”, which was left undisturbed for 4 h at 25° C.
During this time the compounds diffused from the donor plate through the brain lipid membrane into the acceptor plate. After incubation, the donor plate was removed. The concentration of compounds and commercial drugs in the acceptor and the donor wells was determined by UV plate reader. Every sample was analyzed from three to five wavelengths, in 3 wells and in at least three independent runs. […] 11 quality control compounds (previously mentioned) of known BBB permeability were included in each experiment to validate the analysis set.

PDE7A1 = target: T1, PDE7A1 (Homo sapiens, UniProt Q13946); experiment: Determination of PDE7 inhibition (SPA, [3H]cAMP); type: biochemical; conditions: 1,2,4-thiadiazoles-5-imino substituted as hydrobromides; read-out: IC50 (PDE7A)
T1 construct: purchased Calbiochem 524751
T1 sequence (Q13946 whole entry): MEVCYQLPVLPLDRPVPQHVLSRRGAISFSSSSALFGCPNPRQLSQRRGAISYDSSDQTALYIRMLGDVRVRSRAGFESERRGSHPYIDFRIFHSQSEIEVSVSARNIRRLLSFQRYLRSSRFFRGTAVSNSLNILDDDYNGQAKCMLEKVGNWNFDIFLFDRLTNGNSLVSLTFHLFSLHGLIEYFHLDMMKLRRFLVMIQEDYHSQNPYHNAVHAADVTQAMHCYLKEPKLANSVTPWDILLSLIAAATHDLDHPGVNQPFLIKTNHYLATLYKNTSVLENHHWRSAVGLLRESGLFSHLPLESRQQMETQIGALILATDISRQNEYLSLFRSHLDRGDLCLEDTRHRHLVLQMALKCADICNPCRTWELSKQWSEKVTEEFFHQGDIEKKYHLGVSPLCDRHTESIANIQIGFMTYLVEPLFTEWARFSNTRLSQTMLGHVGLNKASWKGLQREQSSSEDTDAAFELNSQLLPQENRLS
Experimental: PDE-7 inhibition was performed with a commercial kit for the determination of phosphodiesterase activity (GE Healthcare Life Sciences, cat#TRKQ7090).
The compounds to be evaluated were incubated (in concentrations between 0.1 nM and 100 μM) in presence of 0.02 U/well of PDE7A1 (Calbiochem cat#524751) and 0.05 μCi of [^3H] cAMP, for 20 min at 30° C. in the assay buffer of kit (total volume=100 μl).
After this time, 50 μl of a suspension of 20 mg/ml microspheres of SPA of Ytrium silicate were added and was maintained under stirring at room temperature for 60 min. Finally, the plate was settled for 20 min and radioactivity was detected in a Microbeta Trilux reader.
In every assay there were included two points without PDE7A1 (blank) and two points with PDE7A1 without inhibitors (control).
Data Analysis: All the compounds were evaluated firstly at the concentration of 10 μM and the percentage of PDE7A1 inhibition was calculated, according to the following formula (cpm=counts per minute): % Inhibition=((cpm control−cpm sample)×100)/(cpm control−cpm blank assay).
For those compounds with % inhibition values above 45% it was calculated its inhibitory potency (IC50) building the dose-response curve.
The data were adjusted with the software Prism v 2.1 (GraphPad Software) using the non lineal fitting.

For `Br.COc1ccc(-n2sc(=NCCO)nc2-c2ccccc2)cc1` [VP-1.61, 5-(2-Hydroxyethylimino)-2-(4-methoxyphenyl)-3-phenyl-2,5-dihydro-1,2,4-thiadiazole hydrobromide], the “Prediction (predictive penetration in the CNS)” value (in vitro) was “CNS+”, the Papp at 4 h (in vitro; pH 7.4) was 13.7 ± 1 ×10⁻⁶ cm/s and the IC50 (PDE7A1) was 1180 nM.
